Each structure is given as a SMILES string.

Consider `C[C@H]1CCCC(C)(C)[C@@H]1C(=O)c1ccc(C#N)c(F)c1`, for which the melting point – broadly, the temperature of the solid-liquid transition – lay in the range of 53 to 56 °C.
`CC(C)(C)c1cc(OCc2ccc(-c3nnn[nH]3)cc2)cc(C(C)(C)C)c1` yielded a melting point of 253 to 255 °C.
On to `CCCCCCc1cc(SC)ccc1OC(=O)c1ccccc1`, for which the melting point was in the range of 57 to 58 °C.
In the case of `CC(=O)Oc1ccc2c(c1)CCC1C2CCC2(C)C(OC(C)=O)CCC12` (stereo not given), the melting point lay within 128 to 129 °C.
The molecule `CSc1ncc(C=O)c(NC2CC2)n1` showed a melting point of 69.5 to 70 °C.
Take `CCC(=O)c1ccc2c(c1)C1(CC1)C(=O)N2`: the melting point lay in the range of 183 to 185 °C.
`Oc1ccc(C(NC(c2ccccc2)c2ccccc2)P(O)O)c(O)c1` (stereo not given) had a melting point of 250 °C.
The result for `CNC(=O)Nc1ccc2c(c1)C(=O)C1(CC1)O2` reads 196 to 204 °C.
`CC(C)CCCC(C)C1CCC2(C#N)C3C=CC4C(C)(C)C(OC(=O)c5ccccc5)CCC4(C)C3CCC12C` (stereo not given) showed a melting point of 232 to 233 °C.
`CCC(CC)c1ccc(Cl)c2nc3n(c12)CCCCN3c1ccc(C(=O)N(C)C)cc1C` showed a melting point of 113 to 114 °C.
In the case of `CN(C)c1ccc(C(=CC(C=C(c2ccc(N(C)C)cc2)c2ccc(N(C)C)cc2)c2ccc(N(C)C)cc2)c2ccc(N(C)C)cc2)cc1`, the melting point lay in the range of 215 to 220 °C.
In turn, `O=C1Nc2ccccc2N(C(=O)CCCl)c2ccccc21` displayed a melting point of 241 to 242 °C.
Turning to `CN1CCN(c2cc3nc(C(C)(C)C)sc3cc2N=C=O)CC1`, the melting point was 124 to 126 °C.
For `Cn1cncc1-c1cc(C=NN(CCC(C)(C)O)C(N)=S)nc(NC2CCN(S(C)(=O)=O)CC2)n1`, the melting point was 204 to 206 °C.
Turning to `N#Cc1[nH]c(Br)c(Br)c1Br`, the melting point lay in the range of 215 to 218 °C.
`CN(C)c1ccc(-c2n[nH]c(=O)c3cc(N(C)C)ccc23)cc1` registered a melting point of 230 to 233 °C.
On to `Cc1cccc(-c2nc(NC(=O)Cc3ccccc3)sc2-c2ccnc(NC(=O)Cc3ccccc3)n2)c1`, for which the melting point lay in the range of 110 to 113 °C.
To `C=CCCC(O)C(C)(C)N1COC(C)=C(c2ccccc2)C1=O` (stereo not given) belongs 74 to 75 °C; to `CC(C)C[C@H](NC(=O)[C@@H](N)Cc1c[nH]cn1)[C@@H](O)c1nccs1`, 118 to 126 °C.
As for `COc1ccc(OC)c2c(Nc3ccc4cn[nH]c4c3)c(C#N)cnc12`, the melting point was 302 to 305 °C.
Molecule `CCC(O)CCCOc1ccccc1Oc1ccccc1OCCCC(O)CC` (stereo not given) came in with a melting point of 119 °C.
The molecule `CCOC(=O)CC1CN=C(c2cc3cc(OC(F)(F)F)cc(N(C)S(=O)(=O)c4cccs4)c3[nH]2)S1` (stereo not given) came in with a melting point of 93 to 94 °C.
To `CCn1c(C(C)NS(=O)(=O)c2ccc(Cl)c(Cl)c2)cnc1Oc1ccc2cc[nH]c2c1` (stereo not given) belongs 150 to 154 °C; to `N#Cc1cc(C(=O)NNC(=O)c2occc2-c2cccs2)ccc1O`, 258 to 259 °C.
To `O=C(COc1ccccc1)N[C@@H](Cc1ccc([N+](=O)[O-])cc1)C(=O)O` belongs 147 °C.
In turn, `O=C1c2cc(OCc3ccccc3)ccc2OCC1Cn1ccnc1` (stereo not given) gave a melting point of 108 to 110 °C.
To `COc1ccc(N2CCN(c3c(C)c(C)c4c(c3C)C(O)(c3ccccc3)C(C)(C)O4)CC2)cc1` (stereo not given) belongs 123 to 125 °C; to `Cc1cccc(/C(N)=C2\Sc3ccccc3C2=O)c1`, 114 to 115 °C.
Turning to `CCCn1cncc1CSc1ccc(NC(=O)C(F)(F)F)cc1`, the melting point was in the range of 82 to 84 °C.
To `CC(=O)N(C)[C@@H]1CN2C(=O)N(c3cc(Cl)cc(Cl)c3)C(=O)[C@@]2(Cc2ccc(OC(F)(F)F)cc2)C1` belongs 74.7 °C; to `CC(C)(Cc1c(C(=O)c2ccccc2)c2cc(OCc3ccc4ccccc4n3)ccc2n1Cc1ccc(Cl)cc1)C(=O)O`, 165 to 166 °C.
To `Cc1c(S(C)(=O)=O)c2ccccc2n1CC1=NCCN1` belongs 187 to 188 °C; to `O=C(NCCO)c1ccc(OCC2(O)CCN(Cc3ccccc3)CC2)cc1`, 161 °C; to `CCc1cc(C(=O)Nc2c(C)cccc2C)no1`, 82 °C.
To `O=C1OC(CCOc2cccc3ccccc23)C(O)=C1O` (stereo not given) belongs 163 to 164 °C.
Turning to `COC(=O)c1cn2c(n1)COc1ccccc1-2`, the melting point is 133 to 134 °C.
The result for `Cc1cc(Cl)nc(N(C=O)c2ccccc2)n1` reads 150 to 152 °C.
Molecule `Cc1cc(F)ccc1[C@@H]1CN(C2=CC(=O)CC2)CC[C@H]1C(=O)N(C)Cc1cc(C(F)(F)F)cc(C(F)(F)F)c1` (relative stereo) came in with a melting point of 192 to 193 °C.
The molecule `CCN1c2ncccc2C(=O)Nc2c(C)cc(NCCO)nc21` showed a melting point of 241 to 244 °C.
Consider `O=[N+]([O-])c1ccc(Oc2ccccc2Oc2ccc(Cl)cn2)nc1`, for which the melting point lay within 82 to 84 °C.
Regarding `CCOC(=O)N1CCNC1=Nc1ccc(Cl)cc1Cl`, the melting point fell in the range of 138 to 139 °C.
`CCCCCCCCCCCCCCCCCCOc1cccc(C(=O)O)c1OCCCOc1ccc(OCc2ccccc2)cc1` gave a melting point of 75 to 76 °C.
Consider `CCOC(=O)C(NC(=O)N1CCc2cc(S(=O)(=O)N3CCN(c4cccc(Cl)c4)CC3)ccc21)C(C)C` (stereo not given), for which the melting point lay within 143 to 144 °C.
`CC(=O)N1CCc2sc(C)c(C(=O)CCCN3CCC(c4noc5cc(F)ccc45)CC3)c2C1` gave a melting point of 116 to 118 °C.
`CC(C)C(=O)NC1c2cc3nonc3cc2OC(C)(C)C1O` (stereo not given) showed a melting point of 194 to 196 °C.
On to `O=C(Nc1cccc(C(F)(F)F)c1F)c1ccccc1NCc1ccc(=O)[nH]c1`, for which the melting point lay in the range of 185 to 186 °C.
`COc1cc2c(Nc3ccc(C)c(OC(C)=O)c3)ncnc2cc1OCc1ccsc1`: the melting point is 201 to 203 °C.
As for `CC12CCC(=O)C=C1CCC1C2C(O)CC2(C)C1CCC2(O)C(=O)COC(=O)CC(CC(=O)O)c1ccc(O)cc1` (stereo not given), the melting point lay in the range of 98 to 110 °C.
To `CCCNc1cc(NS(=O)(=O)c2ccc(N)cc2)nc(NCCC)n1` belongs 211 to 215 °C.
Take `CCn1cc(C(=O)NN)c(=O)c2ccc(-c3ccncc3)cc21`: the melting point lay in the range of 274 to 275 °C.
The result for `CC(C)=CCc1c(O)n2c3c(nc2n(Cc2ccccc2)c1=O)N(C)CN(C)C3=O` reads 153 to 154 °C; that for `CNc1nc(-c2ccc(Br)cc2)cs1`, 147 °C; that for `CC(=O)Nc1ccc2c(c1)C(c1cccn1-c1cc(Cl)cc(Cl)c1)C(=O)N2` (stereo not given), 267 °C.
The result for `CC(C)(C)OC(=O)c1ncn2c1CN(C(=O)N1CCCC1)c1c(F)cccc1-2` reads 214 °C.
The result for `Cc1cn(C)c(C(=O)O)c1-c1ccccc1[N+](=O)[O-]` reads 205 °C; that for `COC(=O)[C@H](Cc1ccc(OS(=O)(=O)C(F)(F)F)c(C2SCCS2)c1)NC(C)=O`, 116 to 118 °C; that for `COc1ccc(-c2ncc(NC(=O)OCc3ccccc3)c(=O)n2CC(=O)NC(Cc2ccccc2)C(=O)C(F)(F)F)cc1` (stereo not given), 172 to 174 °C.
Consider `O=S(CCc1ccccc1)c1nc2cnccc2[nH]1` (stereo not given), for which the melting point was in the range of 171 to 174 °C.
For the molecule `CCCCc1cc2cc(O)c(Cl)c(Cl)c2s1`, the melting point worked out at 35 °C.
In the case of `N#CC(c1ccccc1)c1nc(-c2ccncc2)cs1` (stereo not given), the melting point lay in the range of 110 to 111 °C.
`COc1cc(C(=O)NS(=O)(=O)c2ccccc2C)ccc1Cc1c(Cl)n(C)c2cc(Cl)c(CC(C)NC(=O)N(C)C)cc12` (stereo not given) showed a melting point of 136 to 146 °C.
`CC(C)(C#N)c1cc(-n2cncc2C#N)cc(C(C)(C)C#N)c1`: the melting point fell in the range of 88 to 90 °C.
`COC(=O)C1=C(NC(=O)Nc2cc(C(=O)OC(C)C)c(Cl)cc2F)CCS1` came in with a melting point of 161 to 163 °C.
`CNc1ncc2c(-c3cccc(Cl)c3)cc(-c3cccc(CC(=O)O)c3)c(OC)c2n1` returned a melting point of 258 to 261 °C.
Molecule `O=C(O)c1cc(Cl)ccc1COc1ccccc1` displayed a melting point of 149 to 155 °C.
In the case of `CCC(CC)Nc1cc(C)nc2c1ncn2-c1c(C)cc(C)cc1C`, the melting point lay within 78 to 80 °C.
`O=C(c1cc(-c2ccc(Cl)c(Cl)c2)ccn1)N(O)Cc1ccccc1` had a melting point of 125 to 130 °C.
The result for `CS(=O)c1ccc(-n2cnc3ccc(-c4nnc(CC(F)(F)F)o4)cc32)cc1` (stereo not given) reads 184 to 185 °C; that for `CCCC(C1CCCCC1)n1cncc1C(=O)O` (stereo not given), 202 °C; that for `NS(=O)(=O)c1nc2ccc(OCC3CO3)cc2s1` (stereo not given), 149 to 152 °C.
In turn, `O=c1cnn(-c2ccc(C(c3ccc(Cl)cc3)c3cc(-c4ccccc4)cs3)c(Cl)c2)c(=O)[nH]1` (stereo not given) had a melting point of 90 °C.
In turn, `CCCCN(C(=S)NC)c1ccc(Cl)nc1` gave a melting point of 129 to 130 °C.
The molecule `S=C(Nc1cccc2c1[nH]c1ccccc12)SCc1ccccc1` gave a melting point of 66 to 68 °C.
As for `CC1=C(C(=O)OC(C)C)C(c2ccc(F)cc2Cl)N=C(c2c(F)cccc2F)N1` (stereo not given), the melting point fell in the range of 155 to 158 °C.
With `CC(=O)Sc1cccs1`, the melting point lay in the range of 112 to 114 °C.
On to `O=C1c2ccccc2S(=O)(=O)N1CCCCN1CCN(c2cc(O)cc3c2OCCO3)CC1`, for which the melting point fell in the range of 179 to 181 °C.
With `CCOP(=O)(COS(=O)(=O)c1c(C)cccc1Cl)OCC`, the melting point lay within 41 to 43 °C.
For `CNc1nc(-c2cccc(NC(=O)c3cccnc3)c2)c2cc(OC)c(OC)cc2n1`, the melting point was in the range of 251 to 253 °C.
`COC(=O)C1=CCN=C(c2ccccc2F)c2cc(Cl)ccc21` yielded a melting point of 106 to 107 °C.
Turning to `O=C1OC2(C=C1c1ccccc1)C=C(c1ccccc1)C(=O)O2`, the melting point lay within 235 to 237 °C.
`CC(C)CNc1cc(C(=O)O)cc(S(N)(=O)=O)c1Sc1ccc(N)cc1` gave a melting point of 250 to 252 °C.
For the molecule `O=C(Nc1ccc(OCCN2CCOCC2)c2ccccc12)c1cccc(-n2cccc2)c1`, the melting point is 142 to 143 °C.
Molecule `COC(=O)C(c1ccc(Cl)cc1)c1ncc(C(F)(F)F)cc1Cl` (stereo not given) returned a melting point of 103 to 104 °C.
`O=S(c1[nH]c(-c2ccc(Cl)cc2)c(Br)c1Br)C(F)(F)F` (stereo not given): the melting point lay within 173 to 176 °C.
The result for `C#CCCCCCCCCC(c1ccc(Cl)cc1)C1(S(=O)(=O)c2ccc(OC)cc2)SC(=O)NC1=O` (stereo not given) reads 114 to 121 °C.

The values above are taken from a melting point compilation (Tetko et al.; mined from patent text by program, amines drawn as free bases though some values may be those of a salt).
